One data set deals with T1, PKCε (Homo sapiens, UniProt Q02156).
T1 construct: purchased Calbiochem
T1 sequence (Q02156 1-737): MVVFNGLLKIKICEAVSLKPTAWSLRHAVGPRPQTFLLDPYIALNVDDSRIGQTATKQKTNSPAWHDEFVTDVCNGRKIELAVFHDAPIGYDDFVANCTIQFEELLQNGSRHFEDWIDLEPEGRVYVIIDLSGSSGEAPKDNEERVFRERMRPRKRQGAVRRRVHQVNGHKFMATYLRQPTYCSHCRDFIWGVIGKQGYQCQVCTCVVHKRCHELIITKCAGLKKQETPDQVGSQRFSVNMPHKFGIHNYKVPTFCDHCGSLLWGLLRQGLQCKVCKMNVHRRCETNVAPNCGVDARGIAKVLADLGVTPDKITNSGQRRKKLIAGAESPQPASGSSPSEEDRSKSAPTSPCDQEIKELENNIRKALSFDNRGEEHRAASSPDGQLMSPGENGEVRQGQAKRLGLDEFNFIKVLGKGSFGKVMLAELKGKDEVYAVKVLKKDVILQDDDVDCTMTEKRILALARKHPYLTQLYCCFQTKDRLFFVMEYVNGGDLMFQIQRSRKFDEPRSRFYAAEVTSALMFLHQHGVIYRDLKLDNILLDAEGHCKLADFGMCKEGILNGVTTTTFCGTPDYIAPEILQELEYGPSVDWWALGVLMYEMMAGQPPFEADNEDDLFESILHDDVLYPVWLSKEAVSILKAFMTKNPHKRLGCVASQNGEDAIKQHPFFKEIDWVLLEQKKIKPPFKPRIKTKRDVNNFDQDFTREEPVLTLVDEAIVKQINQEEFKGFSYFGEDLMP
The data set can be described thus: PKC assay with purified PKCε. Format: biochemical. As to conditions: for effect on purified PKCε (FIG. 7, FIG. 8): preincubated five minutes, radiometric. The procedure: PKC assay. […] 0.5 micro Ci[^γ32P]ATP was added. […] The reaction was stopped by spotting the reaction mixtures on 1×2 cm strips of cellulose phosphate paper (Whatman P81) and immediately washing twice for 1 hr in 0.5% H3PO4. The cellulose phosphate strips were counted in a scintillation counter. In some experiments, phosphatidylserine, diacylglycerol, and/or calcium were removed. […]
To determine their PKC isozyme specificity, fatty acid derivatives were preincubated with purified PKC for five minutes and the PKC activity was measured radiometrically.

Data set [1] has as its system PKC. In words: PKC activation over time in H19-7/IGF-IR hippocampal cells. It is filed as cell-based, rat. The procedure:
(§1) Cell culture. Rat hippocampal H19-7/IGF-IR cells (ATCC, Manassas, Va.) were plated onto poly-L-lysine coated plates and grown at 35° C. in DMEM/10% FCS for several days until about 50% coverage was obtained. The cells were then induced to differentiate into a neuronal phenotype by replacing the medium with 5 ml N2 medium containing 10 ng/ml basic fibroblast growth factor at 39° C. and grown in T-75 flasks at 37° C. Human SH-SY5Y neuroblastoma cells (ATCC) were cultured in 45% F12K/45% MEM/10% FCS. Mouse N2A neuroblastoma cells were cultured in DMEM/10% FCS without glutamine. Rat hippocampal neurons from 18-day-old embryonic Sprague Dawley rat brains were plated on 12- or 96-well plates coated with poly-D-lysine (Sigma-Aldrich, St. Louis, Mo.) in B-27 neurobasal medium containing 0.5 mM glutamine and 25 μM glutamate (Invitrogen, Carlsbad, Calif.) and cultured for three days in the medium without glutamate. The neuronal cells were grown under 5% CO2 in an incubator maintained at 37° C. for 14 days.
Protein kinase C assay. Rat hippocampal cells were cultured and scraped in 0.2 ml homogenization buffer (20 mM Tris-HCl, pH 7.4, 50 mM NaF, 1 μg/ml leupeptin, and 0.1 mM PMSF) and homogenized by sonication a Marsonix microprobe sonicator (5 sec, 10W). To measure PKC, 10 μl of cell homogenate or purified PKC isozyme (purchased from Calbiochem) was incubated for 15 min at 37° C. in the presence of 10 μM histones, 4.89 mM CaCl2, 1.2 μg/μl phosphatidyl-L-serine, 0.18 μg/μl 1,2-dioctanoyl-sn-glycerol, 10 mM MgCl2, 20 mM HEPES (pH 7.4), 0.8 mM EDTA, 4 mM EGTA, 4% glycerol, 8 μg/ml aprotinin, 8 μg/ml leupeptin, and 2 mM benzamidine. 0.5 Ci [^γ32P]ATP was added and ^32P-phosphoprotein formation was measured by adsorption onto phosphocellulose as described previously. Nelson and Alkon, J. Neurochemistry (1995), vol. 65, pp. 2350-2357. For measurements of activation by BR-101 (DCP-LA) and similar compounds. PKC activity was measured in the absence of diacylglycerol and phosphatidylserine and PKC δ, ε, η, and μ were measured in the absence of added EGTA and CaCl2, as described by Kanno et al. (J. Lipid Res. 2006, vol. 47, pp. 1146-1150). Low concentrations of Ca^2+ are used because high Ca^2+ interacts with the PKC phosphatidylserine binding site and prevents activation. For measurements of bryostatin activation, 1,2-diacylglycerol was omitted unless otherwise stated.

Another data set deals with α-secretase. Particulars: cited from earlier work.
The test system of data set [2] is SH-SY5Y neuroblastoma cells. The data set can be described thus: Cell survival and proliferation (alamar Blue, CyQuant). Format: cell-based, human. Particulars: alamar Blue and CyQuant staining. The procedure:
(§2) Aβ Measurement and Cell Viability Assay. Aβ was measured using an Aβ 1-42 human fluorimetric ELISA kit (Invitrogen) according to the manufacturer's instructions. Results were measured in a Biotek Synergy HT microplate reader. AlamarBlue and CyQuant NF (Invitrogen) according to the manufacturer's instructions.
A general note: Resazurin is reduced to fluorescent resorufin, in cell work by metabolically active cells.

For data set [3], the system named is Endothelin-converting enzyme (ECE). The data set can be described thus: Endothelin-converting enzyme (ECE) activity in neuroblastoma cells. Format: cell-based, human. As to conditions: bryostatin 0.27 nM, BR-101 1 μM, BR-111 1 μM. The procedure:
ECE assay. […] neuroblastoma cells were incubated with bryostatin (0.27 nM), BR-101 (DCP-LA) (1 μM), and BR-111 (DHA-CP6) (1 μM). Endothelin-converting enzyme (ECE) was measured fluorimetrically using the method of Johnson and Ahn (Anal. Biochem. (2000), vol. 286, pp. 112-118). A sample of cell homogenate (20 μl) was incubated in 50 mM MES-KOH, pH 6.0, 0.01% C12E10 (polyoxyethylene-10-lauryl ether), and 15 μM McaBK2 (7-Methoxycoumarin-4-acetyl [Ala7-(2,4-Dinitrophenyl)Lys9]-bradykinin trifluoroacetate salt) (Sigma-Aldrich). After 60 min at 37° C., the reaction was quenched by adding trifluoroacetic acid to 0.5%. The sample was diluted to 1.4 ml with water and the fluorescence was measured at ex=334 nm, em=398 nm.

The next data set deals with TACE. In words: TACE activity in neuronal cells. Particulars: SH-SY5Y cells, N2a cells, primary neurons from rat hippocampus. Format: cell-based, human, mouse. The procedure:
TACE Assay. TACE was measured by incubating 5 μl cell homogenate, 3 μl buffer (50 mM Tris-HCl 7.4 plus 25 mM NaCl plus 4% glycerol), and 1 μl of 100 μM TACE substrate (Aβz-[…]-DPa) (Calbiochem) for 20 min at 37° C. 1.5-ml polypropylene centrifuge tubes. Jin et al., Anal. Biochem. (2002), vol. 302, pp. 269-275. The reaction was stopped by cooling to 4° C. The samples were diluted to 1 ml and the fluorescence was rapidly measured (ex=320 nm, em=420 nm) in a Spex Fluorolog 2 spectrofluorometer.

For a further data set, the system named is Aβ. In words: Aβ production in N2a neuroblastoma cells transfected with human APPSwe/PSID. Format: cell-based, mouse. Particulars: 24 hours, various concentrations. The procedure: as §1, §2
To measure the effects of PKCε activation on Aβ production, mouse neuro2a (N2a) neuroblastoma cells transfected with human APPSwe/PSID were used, which produce large quantities of Aβ. Petanceska et al., J. Neurochem. (1996), vol. 74, pp. 1878-1884. […] With bryostatin, which activates PKC by binding to the diacylglycerol-binding site, the inhibition was biphasic with concentrations of 20 nM or higher producing no net effect. This may be explained by the ability of this class of PKC activators to downregulate PKC when used at high concentrations.

The next data set relates to NIC 60 cell line screen. As to conditions: cited from earlier work.
For data set [4], the target named is PKC. Particulars: competition with [3H] phorbol dibutyrate; cited from earlier work.
Data set [5] relates to PKC. Particulars: cited from earlier work; for Ki: A-ring bryologs, read-out: affinity for PKC.

Read-outs that look alike come from different tables or passages of the source.

Consider `CCCCC[C@H]1O[C@H]1CC1CC1CCCCCCCC(=O)OC` (stereo partly drawn) [BR-109, vernolic acid methyl ester cyclopropane], for which the “concentrations at which PKCε is inhibited” value on PKCε is given as “above 1 μM”.
As to `CCC/C=C/C=C/C(=O)O[C@H]1/C(=C/C(=O)OC)C[C@H]2C[C@H]([C@@H](C)O)OC(=O)C[C@H](O)C[C@@H]3C[C@H](OC(C)=O)C(C)(C)[C@](O)(C[C@@H]4C/C(=C/C(=O)OC)C[C@H](/C=C/C(C)(C)[C@]1(O)O2)O4)O3` [Bryostatin-1], in the data set on PKC [1] (0.04 nM and 0.2 nM), the “PKC downregulation following activation” value is 20% and the “time of return of PKC to baseline” value is no more than 24 h. In the data set on PKC [1] (0.04 nM and 0.2 nM, data not shown), this molecule yielded a PKC activation of 2 fold. In the data set with PKC [1] (data not shown), the “PKC activity at 8 hours (downregulation)” value is given as “at or near the baseline”. Also, the “increase of initial rate of α-secretase activity” value with α-secretase (10 μM) is 16 fold. Moreover, the “increase of initial rate of α-secretase activity” value in the data set on α-secretase (100 μM) is 132 fold. In [2], the “effect on cell survival” value was “no effect”. Also, the ECE activity entry in data set [3] is “sustained increase”. The TACE activity result with TACE is listed as “small increases”. For the same molecule, in the data set with Aβ, the “levels of intracellular Aβ” value is recorded as “markedly reduced” and the “levels of secreted Aβ” value is on record as “markedly reduced”.
Regarding `CC1=CC[C@H](C)C(C)(C)[C@@H]1/C=C/C(C)=C/CC[C@@]1(CO)[C@H](CCCO)/C(=C(/C)C=O)CC[C@]1(C)O` [Iripallidal], the “GI50 (concentration required to inhibit growth by 50%)” value in the data set with NIC 60 cell line screen is “micromolar to nanomolar range”.
With `CC1=C[C@]23C(=O)[C@@H](C=C(COC(=O)c4ccccc4)[C@@H](O)[C@]2(O)[C@H]1OC(=O)c1ccccc1)[C@H]1[C@@H](C[C@H]3C)C1(C)C` [Ingenol 3,20-dibenzoate], the Ki on PKC [4] is 240 nM.
As to `CCCCCC1OC1C/C=C\CCCCCCCC(=O)OC` (stereo in doubt) [BR-117, vernolic acid methyl ester], the “effect on purified PKCε (FIG. 7, FIG. 8)” value at PKCε was “little or no effect”.
`CCCCCC1CC1CC1CC1CC1CC1CC1CC1CCCC(=O)OC` (stereo not drawn) [BR-115, methyl 4-(2-((2-((2-((-pentylcyclopropyl)methyl)cyclopropyl)methyl)cyclopropyl)methyl)cyclopropyl)butanoate methyl ester]: on PKCε, the “concentration needed to activate PKC, times lower than for BR-101 (DCP-LA)” value is recorded as “approximately 100 times” and the “effect on purified PKCε (FIG. 7, FIG. 8)” value is “activated”.
As to `CCC1CC1CC1CC1CC1CC1CCCCCCCCO` (stereo not drawn) [BR-104, linolenic alcohol tricyclopropane], the “effect on purified PKCε (FIG. 7, FIG. 8)” value on PKCε was “little or no effect”.
What is called EC50 is the midpoint of the concentration-response curve. Regarding `CCCCCCCCCCCCCC(=O)O[C@@H]1[C@@H](C)[C@@]2(O)[C@@H](C=C(CO)C[C@]3(O)C(=O)C(C)=C[C@@H]23)[C@@H]2C(C)(C)[C@]12OC(C)=O` [PMA, phorbol 12-myristate 13-acetate], the “PKC activity at 8 hours (downregulation)” value in the data set with PKC [1] (data not shown) is reported as “strongly downregulated”. Further, the EC50 with PKC [5] (read-out: affinity for PKC (EC50)) was […].
As for `CCCCCCCC(=O)OC1C(=CC(=O)OC)CC2CC(CO)OC(=O)CC(O)CCOC(c3ccccc3)CC3CCOC(C=CC(C)(C)C1(O)O2)O3` (stereo not drawn) [bryolog 4], at PKC [5], the Ki was 2.3 nM.
`CCCCCC1CC1CC1CC1CCCCCCCCO` (stereo not drawn) [BR-105, linoleic alcohol dicyclopropane]: the “effect on purified PKCε (FIG. 7, FIG. 8)” value at PKCε is reported as “little or no effect”.
Take `CCC1CC1CC1CC1CC1CC1CC1CC1CC1CC1CCCC(=O)OC` (stereo not drawn) [BR-114]: on PKCε, the “concentration needed to activate PKC, times lower than for BR-101 (DCP-LA)” value is reported as “approximately 100 times” and the “effect on purified PKCε (FIG. 7, FIG. 8)” value was “activated”.
As for epoxystearic acid [BR-116], at PKCε, the “effect on purified PKCε (FIG. 7, FIG. 8)” value is recorded as “little or no effect”.
On to `CCCCCCCC(=O)OC1C(=CC(=O)OC)CC2CC(CO)OC(=O)CC(O)CCOC(CCCc3ccc(Br)cc3)CC3CCOC(C=CC(C)(C)C1(O)O2)O3` (stereo not drawn) [bryolog 5], for which the Ki at PKC [5] was 1.9 nM.
Take `CCCCCCCC(=O)OC1C(=CC(=O)OC)CC2CC(CO)OC(=O)CC(O)CCOC(C(C)(C)C)CC3CCOC(C=CC(C)(C)C1(O)O2)O3` (stereo not drawn) [bryolog 3]: at PKC [5], the Ki was 6.5 nM.

The record behind these values is patent US20120027687A1, “FATTY ACID PROTEIN KINASE C ACTIVATORS AND ANTICOAGULANT FOR THE TREATMENT OF STROKE” (priority 2010, published 2012).
